What was measured:
Type in all cases: cell-based
AXL = AXL (Homo sapiens (Human), UniProt P30530); experiment: AXL autophosphorylation ELISA in A-172 cells; details: cellular, Gas6-stimulated, phospho-AXL ELISA
Experimental: A-172 glioblastoma cells (ATCC #CRL-1620) were seeded at 2.5×10^5 cells/well onto 24-well plates (Greiner #662165), in […] (Thermo Fisher #11995-040) containing 10% FBS (Thermo Fisher #26140-079), […] (Thermo Fisher #11140-050), […] (Thermo Fisher #35050-061), and 1% Penicillin Streptomycin (Thermo Fisher #15140-122). A-172 cells were incubated at 37° C., […] for 24 hand then starved for 24 h in serum-free medium. Test compounds were serially diluted to produce an 8-point dose curve in fresh serum-free medium to a final concentration of 0.3% DMSO (vehicle) and added to the cells and incubated for 1 h. Cells were then stimulated with 1 μg/mL recombinant human Gas6 (R&D Systems #885-GSB-500) for 15 min, washed with cold PBS, and immediately lysed with 150 μL of cold 1× lysis buffer [20 mM Tris, 137 mM sodium chloride, 2 mM EDTA, 10% glycerol, 1% NP-40 alternative, 1 mM activated sodium orthovanadate, 1 mM PefaBloc SC (Sigma-Aldrich #11429868001), protease/phosphatase inhibitor tablet (Thermo Fisher #A32959)]. Lysates were collected and 100 μL/well added into the human phospho-AXL DuoSet IC ELISA (R&D Systems #DYC2228-2). Assay was performed according to manufacturer's instructions and sample phospho-AXL concentrations were extrapolated using human phospho-AXL control (R&D Systems #841645) as a standard. Positive control wells (100% activity) contained Gas6-stimulated, DMSO-treated cell lysates. Negative control wells (0% activity) contained Gas6-stimulated, reference inhibitor-treated cell lysates. IC50 values were calculated by nonlinear regression analysis using a 4-parameter logistic curve fit in ActivityBase XE (IDBS).

Mer = Mer (Homo sapiens (Human), UniProt Q12866); experiment: Mer autophosphorylation ELISA in transient transfected 293A cells; details: cellular, MERTK-transfected 293A cells, phospho-Mer ELISA
Sequence of Mer (Q12866 21-999): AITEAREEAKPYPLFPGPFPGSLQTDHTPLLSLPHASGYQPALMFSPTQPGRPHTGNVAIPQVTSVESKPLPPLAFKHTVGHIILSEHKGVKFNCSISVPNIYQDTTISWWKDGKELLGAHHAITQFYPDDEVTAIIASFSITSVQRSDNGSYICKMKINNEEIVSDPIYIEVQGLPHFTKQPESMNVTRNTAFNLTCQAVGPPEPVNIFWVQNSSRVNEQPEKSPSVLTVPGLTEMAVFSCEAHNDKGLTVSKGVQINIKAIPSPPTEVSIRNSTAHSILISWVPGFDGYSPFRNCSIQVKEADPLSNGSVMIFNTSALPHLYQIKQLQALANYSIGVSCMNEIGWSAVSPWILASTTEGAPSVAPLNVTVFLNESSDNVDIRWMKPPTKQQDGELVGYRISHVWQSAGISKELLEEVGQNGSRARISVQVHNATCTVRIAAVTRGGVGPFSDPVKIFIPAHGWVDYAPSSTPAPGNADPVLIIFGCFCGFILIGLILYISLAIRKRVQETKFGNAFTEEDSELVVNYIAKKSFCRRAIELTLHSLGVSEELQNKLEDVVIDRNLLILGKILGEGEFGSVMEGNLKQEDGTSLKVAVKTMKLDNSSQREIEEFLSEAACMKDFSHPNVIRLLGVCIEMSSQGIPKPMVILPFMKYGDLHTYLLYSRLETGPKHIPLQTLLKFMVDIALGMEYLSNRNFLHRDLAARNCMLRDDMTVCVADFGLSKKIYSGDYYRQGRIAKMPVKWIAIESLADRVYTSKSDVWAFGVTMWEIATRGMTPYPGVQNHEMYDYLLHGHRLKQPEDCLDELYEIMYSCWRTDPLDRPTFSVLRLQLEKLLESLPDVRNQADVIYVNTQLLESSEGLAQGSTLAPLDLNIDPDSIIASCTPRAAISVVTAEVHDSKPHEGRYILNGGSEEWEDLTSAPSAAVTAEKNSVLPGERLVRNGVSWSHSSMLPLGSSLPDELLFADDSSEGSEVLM
Experimental: 293A cells (Thermo Fisher #R70507) were seeded at 1.5×10^6 cells/well onto 100 mm dish (Greiner #664169), in DMEM (Thermo Fisher #11995-040) containing 10% FBS (Thermo Fisher #26140-079), 1% MEM NEAA (Thermo Fisher #11140-050), 1% GlutaMax (Thermo Fisher #35050-061), and 1% Penicillin Streptomycin (Thermo Fisher #15140-122). 293A cells were incubated at 37° C., 5% CO2 for 24 h and then transfected with 6 μg MERTK DNA (Genecopoeia #EX-Z8208-M02) using TransIT LT1 transfection reagent (Mirus-Bio #MIR2305). After 24 h incubation, the transfected 293A cells were seeded at 1×10^5 cells/well onto 96-well plates (Corning #3904) in DMEM growth medium overnight. Test compounds were serially diluted to produce an 8-point dose curve in fresh serum-free medium to a final concentration of 0.3% DMSO (vehicle) and added to the cells and incubated for 1 h. Cells were then immediately lysed with 150 μL of cold 1× lysis buffer [20 mM Tris, 137 mM sodium chloride, 2 mM EDTA, 10% glycerol, 1% NP-40 alternative, 1 mM activated sodium orthovanadate, 1 mM PefaBloc SC (Sigma-Aldrich #11429868001), protease/phosphatase inhibitor tablet (Thermo Fisher #A32959)]. Lysates were clarified by centrifugation and 50 μL/well added into the human phospho-Mer DuoSet IC ELISA (R&D Systems #DYC2579-2). Assay was performed according to manufacturer's instructions and sample phospho-Mer concentrations were extrapolated using human phospho-Mer control (R&D Systems #841793) as a standard. Positive control wells (100% activity) contained DMSO-treated cell lysates. Negative control wells (0% activity) contained reference inhibitor-treated cell lysates. IC50 values were calculated by nonlinear regression analysis using a 4-parameter logistic curve fit in ActivityBase XE (IDBS).

Met = Met (Homo sapiens (Human), UniProt P08581); experiment: Met autophosphorylation ELISA in PC-3 cells; details: cellular, HGF-stimulated, phospho-Met ELISA, read-out: c-Met IC50
Sequence of Met (P08581 25-1390): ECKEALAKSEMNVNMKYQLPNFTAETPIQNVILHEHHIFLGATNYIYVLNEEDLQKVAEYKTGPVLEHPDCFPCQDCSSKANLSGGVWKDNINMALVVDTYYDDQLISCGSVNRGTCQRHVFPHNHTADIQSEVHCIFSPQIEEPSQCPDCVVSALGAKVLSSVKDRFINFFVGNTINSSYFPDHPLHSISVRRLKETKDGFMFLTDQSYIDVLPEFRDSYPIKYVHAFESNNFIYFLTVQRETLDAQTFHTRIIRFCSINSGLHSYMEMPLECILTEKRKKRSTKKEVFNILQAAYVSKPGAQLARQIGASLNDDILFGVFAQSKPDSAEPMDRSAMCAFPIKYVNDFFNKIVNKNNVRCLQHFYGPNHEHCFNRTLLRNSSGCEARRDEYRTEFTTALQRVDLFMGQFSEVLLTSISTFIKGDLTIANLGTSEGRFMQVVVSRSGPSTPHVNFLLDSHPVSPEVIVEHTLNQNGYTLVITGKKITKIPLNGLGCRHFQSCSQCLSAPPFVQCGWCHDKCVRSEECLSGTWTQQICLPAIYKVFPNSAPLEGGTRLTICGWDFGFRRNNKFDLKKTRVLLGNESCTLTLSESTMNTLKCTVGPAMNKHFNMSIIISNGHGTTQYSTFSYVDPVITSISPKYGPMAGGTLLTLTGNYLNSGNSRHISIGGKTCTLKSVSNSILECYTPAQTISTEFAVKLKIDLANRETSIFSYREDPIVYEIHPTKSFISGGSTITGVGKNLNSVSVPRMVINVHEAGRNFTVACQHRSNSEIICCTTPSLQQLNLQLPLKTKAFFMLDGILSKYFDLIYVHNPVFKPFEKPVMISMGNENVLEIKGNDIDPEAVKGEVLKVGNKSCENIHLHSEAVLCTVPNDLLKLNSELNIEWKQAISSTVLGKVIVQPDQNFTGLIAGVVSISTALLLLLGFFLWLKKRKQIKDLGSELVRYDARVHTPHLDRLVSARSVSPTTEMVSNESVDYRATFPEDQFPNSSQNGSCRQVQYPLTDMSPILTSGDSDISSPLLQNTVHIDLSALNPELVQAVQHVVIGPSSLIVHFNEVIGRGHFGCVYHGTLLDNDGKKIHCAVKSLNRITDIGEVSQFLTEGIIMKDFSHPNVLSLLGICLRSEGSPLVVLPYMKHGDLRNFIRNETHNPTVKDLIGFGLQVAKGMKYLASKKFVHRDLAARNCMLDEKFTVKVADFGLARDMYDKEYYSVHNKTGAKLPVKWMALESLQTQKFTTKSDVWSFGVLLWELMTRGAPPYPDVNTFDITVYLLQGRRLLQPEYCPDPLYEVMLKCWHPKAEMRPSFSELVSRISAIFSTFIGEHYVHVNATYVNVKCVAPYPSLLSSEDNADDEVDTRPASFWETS
Experimental: PC-3 prostate cancer cells (ATCC #CRL-1435) were seeded at 4×10^4 cells/well onto 24-well plates (Greiner #662165), in DMEM (Thermo Fisher #11995-040) containing 10% FBS (Thermo Fisher #26140-079), 1% MEM NEAA (Thermo Fisher #11140-050), 1% GlutaMax (Thermo Fisher #35050-061), and 1% Penicillin Streptomycin (Thermo Fisher #15140-122). PC-3 cells were incubated at 37° C., 5% CO2 for 24 h and then starved for 3 h in serum-free medium. Test compounds were serially diluted to produce an 8-point dose curve in fresh serum-free medium to a final concentration of 0.3% DMSO (vehicle) and added to the cells and incubated for 1 h. Cells were then stimulated with 100 ng/mL recombinant human HGF (R&D Systems #294-HG-250) for 10 min, washed with cold PBS, and immediately lysed with 130 μL of cold 1× lysis buffer [20 mM Tris, 137 mM sodium chloride, 2 mM EDTA, 10% glycerol, 1% NP-40 alternative, 1 mM activated sodium orthovanadate, 1 mM PefaBloc SC (Sigma-Aldrich #11429868001), and protease/phosphatase inhibitor tablet (Thermo Fisher #A32959)]. Lysates were clarified by centrifugation and 100 μL/well added into the PathScan phospho-Met (panTyr) Sandwich ELISA (Cell Signaling Technology #7333). Assay was performed according to manufacturer's instructions. Positive control wells (100% activity) contained HGF-stimulated, DMSO-treated cell lysates. Negative control wells (0% activity) contained HGF-stimulated, reference inhibitor-treated cell lysates. IC50 values were calculated by nonlinear regression analysis using a 4-parameter logistic curve fit in ActivityBase XE (IDBS).

KDR = KDR (Homo sapiens (Human), UniProt P35968); experiment: KDR autophosphorylation ELISA in HUVEC cells; details: cellular, VEGF165-stimulated, phospho-KDR ELISA
Sequence of KDR (P35968 20-1356): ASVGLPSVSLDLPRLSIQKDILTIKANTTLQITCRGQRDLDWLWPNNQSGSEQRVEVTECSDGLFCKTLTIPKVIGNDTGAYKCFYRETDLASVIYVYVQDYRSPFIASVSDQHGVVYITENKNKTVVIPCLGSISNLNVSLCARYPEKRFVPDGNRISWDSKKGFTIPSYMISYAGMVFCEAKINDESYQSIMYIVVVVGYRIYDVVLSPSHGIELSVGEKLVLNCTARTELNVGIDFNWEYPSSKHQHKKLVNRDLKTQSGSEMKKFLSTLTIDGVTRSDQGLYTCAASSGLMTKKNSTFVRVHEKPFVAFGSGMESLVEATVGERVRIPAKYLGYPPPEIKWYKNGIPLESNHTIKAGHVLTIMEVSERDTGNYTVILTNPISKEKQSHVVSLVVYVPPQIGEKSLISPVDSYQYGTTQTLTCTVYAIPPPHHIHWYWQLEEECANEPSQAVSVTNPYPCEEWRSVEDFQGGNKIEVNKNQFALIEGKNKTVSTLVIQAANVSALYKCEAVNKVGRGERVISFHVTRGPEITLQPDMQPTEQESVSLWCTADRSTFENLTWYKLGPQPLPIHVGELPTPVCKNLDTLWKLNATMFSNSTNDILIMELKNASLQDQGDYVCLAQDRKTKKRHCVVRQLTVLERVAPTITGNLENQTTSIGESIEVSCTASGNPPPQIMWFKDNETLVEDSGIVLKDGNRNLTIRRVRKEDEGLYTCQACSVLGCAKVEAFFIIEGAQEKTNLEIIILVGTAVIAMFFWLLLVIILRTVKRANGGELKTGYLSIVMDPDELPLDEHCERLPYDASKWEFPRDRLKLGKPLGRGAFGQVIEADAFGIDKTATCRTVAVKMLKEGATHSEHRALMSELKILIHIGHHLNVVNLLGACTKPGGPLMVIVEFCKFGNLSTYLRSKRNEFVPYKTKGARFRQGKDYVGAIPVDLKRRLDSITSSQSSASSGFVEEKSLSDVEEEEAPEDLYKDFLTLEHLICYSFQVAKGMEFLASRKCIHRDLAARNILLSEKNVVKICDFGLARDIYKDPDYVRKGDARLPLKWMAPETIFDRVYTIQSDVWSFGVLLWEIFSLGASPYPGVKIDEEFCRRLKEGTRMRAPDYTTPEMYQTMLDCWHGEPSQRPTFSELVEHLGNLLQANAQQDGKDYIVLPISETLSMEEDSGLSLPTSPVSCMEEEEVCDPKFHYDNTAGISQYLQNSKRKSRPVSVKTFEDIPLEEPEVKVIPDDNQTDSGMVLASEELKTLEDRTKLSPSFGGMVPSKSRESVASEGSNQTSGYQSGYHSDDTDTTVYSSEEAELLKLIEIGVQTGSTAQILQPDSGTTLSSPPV
Experimental: Human umbilical vein endothelial cells or HUVEC (Lonza #C2519A) were seeded at 2×10^4 cells/well onto 96-well plates (Corning #3904), in EGM-2 growth medium (Lonza #CC-3162) containing 1% Penicillin Streptomycin (Thermo Fisher #15140-122). HUVEC cells were incubated at 37° C., 5% CO2 for 24 h and then starved for 24 h in serum-free EBM-2 basal medium (Lonza #CC-3156) containing 1% Penicillin Streptomycin. Test compounds were serially diluted to produce an 8-point dose curve in fresh serum-free medium to a final concentration of 0.3% DMSO (vehicle) and added to the cells and incubated for 1 h. Cells were then stimulated with 100 ng/mL recombinant human VEGF165 (R&D Systems #293-VE-500) for 5 min, washed with cold PBS, and immediately lysed with 130 μL of cold 1× lysis buffer [20 mM Tris, 137 mM sodium chloride, 2 mM EDTA, 10% glycerol, 1% NP-40 alternative, 1 mM activated sodium orthovanadate, 1 mM PefaBloc SC (Sigma-Aldrich #11429868001), protease/phosphatase inhibitor tablet (Thermo Fisher #A32959)]. Lysates were collected and 100 μL/well added into the human phospho-KDR DuoSet IC ELISA (R&D Systems #DYC1766-2). Assay was performed according to manufacturer's instructions and sample phospho-KDR concentrations were extrapolated using human phospho-KDR control (R&D Systems #841421) as a standard. Positive control wells (100% activity) contained VEGF165-stimulated, DMSO-treated cell lysates. Negative control wells (0% activity) contained non-stimulated cell lysates. IC50 values were calculated by nonlinear regression analysis using a 4-parameter logistic curve fit in ActivityBase XE (IDBS).

Sequence of AXL (P30530 26-894): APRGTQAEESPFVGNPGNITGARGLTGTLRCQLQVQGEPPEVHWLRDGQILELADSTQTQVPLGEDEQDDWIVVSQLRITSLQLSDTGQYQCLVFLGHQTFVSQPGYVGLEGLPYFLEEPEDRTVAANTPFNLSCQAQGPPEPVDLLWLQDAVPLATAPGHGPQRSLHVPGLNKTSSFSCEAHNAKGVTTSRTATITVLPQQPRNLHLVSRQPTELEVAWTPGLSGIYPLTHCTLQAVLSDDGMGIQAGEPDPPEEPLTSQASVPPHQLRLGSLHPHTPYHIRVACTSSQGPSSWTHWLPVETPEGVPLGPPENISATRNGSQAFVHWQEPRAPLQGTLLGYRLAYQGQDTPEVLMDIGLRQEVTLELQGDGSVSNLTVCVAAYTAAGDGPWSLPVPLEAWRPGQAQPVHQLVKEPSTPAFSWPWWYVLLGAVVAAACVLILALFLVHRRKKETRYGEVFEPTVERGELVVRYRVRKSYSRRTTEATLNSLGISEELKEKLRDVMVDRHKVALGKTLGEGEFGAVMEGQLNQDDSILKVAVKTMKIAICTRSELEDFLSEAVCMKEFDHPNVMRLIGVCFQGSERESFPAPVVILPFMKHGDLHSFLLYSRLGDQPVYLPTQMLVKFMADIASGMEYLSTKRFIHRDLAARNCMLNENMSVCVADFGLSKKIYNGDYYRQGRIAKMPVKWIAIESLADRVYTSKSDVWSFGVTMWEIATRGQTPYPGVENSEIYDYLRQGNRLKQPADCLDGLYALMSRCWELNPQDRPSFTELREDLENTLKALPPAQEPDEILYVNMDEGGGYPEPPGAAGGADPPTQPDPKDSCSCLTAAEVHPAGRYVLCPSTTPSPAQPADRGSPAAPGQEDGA

SMILES | IC50 (AXL) [nM] | IC50 (Mer) [nM] | IC50 (Met) [nM] | IC50 (KDR) [nM]
CNC(=O)c1cc2c(Oc3ncc(NC(=O)C4(C(=O)Nc5ccc(F)cc5)CC4)cc3Cl)ccnc2cc1OC [Compound 19, 1-N′-[5-Chloro-6-[7-methoxy-6-(methylcarbamoyl)quinolin-4-yl]oxypyridin-3-yl]-1-N-(4-fluorophenyl)cyclopropane-1,1-dicarboxamide] | ≤ 10 | 10 to 100 | 10 to 100 | > 300
COc1cc2nccc(Oc3ncc(NC(=O)C4(C(=O)Nc5ccc(F)cc5)CC4)cc3Cl)c2cc1-c1ncc[nH]1 [Compound 71, 1-N′-[5-Chloro-6-[6-(1H-imidazol-2-yl)-7-methoxyquinolin-4-yl]oxypyridin-3-yl]-1-N-(4-fluorophenyl)cyclopropane-1,1-dicarboxamide] | 10 to 100 | 10 to 100 | 10 to 100 | > 300
CCNC(=O)c1cc2c(Oc3ncc(NC(=O)C4(C(=O)Nc5ccc(F)cc5)CC4)cc3F)ccnc2cc1OC [Compound 23, 1-N′-[6-[6-(Ethylcarbamoyl)-7-methoxyquinolin-4-yl]oxy-5-fluoropyridin-3-yl]-1-N-(4-fluorophenyl)cyclopropane-1,1-dicarboxamide] | 10 to 100 | 10 to 100 | 10 to 100 | > 300
CC(O)COc1cc2nccc(Oc3ncc(NC(=O)C4(C(=O)Nc5ccc(F)cc5)CC4)cc3Cl)c2cc1C(N)=O (centres unmarked) [Compound 51, 1-N′-[6-[6-Carbamoyl-7-(2-hydroxypropoxy)quinolin-4-yl]oxy-5-chloropyridin-3-yl]-1-N-(4-fluorophenyl)cyclopropane-1,1-dicarboxamide] | 10 to 100 | 10 to 100 | 10 to 100 | > 300
COc1cc2nccc(Oc3ccc(NC(=O)C4(C(=O)Nc5ccc(F)cc5)CC4)c(OC)n3)c2nc1OC [Compound 86, 1-N′-[6-[(6,7-Dimethoxy-1,5-naphthyridin-4-yl)oxy]-2-methoxypyridin-3-yl]-1-N-(4-fluorophenyl)cyclopropane-1,1-dicarboxamide] | 10 to 100 | 10 to 100 | 100 to 300 | > 300
COc1cc2nccc(Oc3ncc(NC(=O)C4(C(=O)Nc5ccc(F)cc5)CC4)cc3Cl)c2cc1-c1ncco1 [Compound 64, 1-N′-[5-Chloro-6-[7-methoxy-6-(1,3-oxazol-2-yl)quinolin-4-yl]oxypyridin-3-yl]-1-N-(4-fluorophenyl)cyclopropane-1,1-dicarboxamide] | ≤ 10 | 10 to 100 | 10 to 100 | > 300

Second part, the compound after the results:

IC50 (AXL) [nM] | IC50 (Mer) [nM] | IC50 (Met) [nM] | IC50 (KDR) [nM] | SMILES
10 to 100 | 10 to 100 | 10 to 100 | > 300 | COc1nc2c(Oc3ncc(NC(=O)C4(C(=O)Nc5ccc(F)cc5)CC4)cc3F)ccnc2cc1OCCCN1CCOCC1 [Compound 122, 1-N′-[5-Fluoro-6-[[6-methoxy-7-(3-morpholin-4-ylpropoxy)-1,5-naphthyridin-4-yl]oxy]pyridin-3-yl]-1-N-(4-fluorophenyl)cyclopropane-1,1-dicarboxamide]
10 to 100 | 10 to 100 | 10 to 100 | > 300 | COc1nc2c(Oc3ncc(NC(=O)C4(C(=O)Nc5ccc(F)cc5)CC4)cc3F)ccnc2cc1OCCCN(C)C [Compound 125, 1-N′-[6-[[7-[3-(Dimethylamino)propoxy]-6-methoxy-1,5-naphthyridin-4-yl]oxy]-5-fluoropyridin-3-yl]-1-N-(4-fluorophenyl)cyclopropane-1,1-dicarboxamide]
10 to 100 | 100 to 300 | 100 to 300 | > 300 | COc1nc2c(Oc3ccc(NC(=O)C4(C(=O)Nc5ccc(F)cc5)CC4)cn3)ncnc2cc1OCCCN1CCOCC1 [Compound 155, 1-N-(4-Fluorophenyl)-1-N′-[6-[6-methoxy-7-(3-morpholin-4-ylpropoxy)pyrido[3,2-d]pyrimidin-4-yl]oxypyridin-3-yl]cyclopropane-1,1-dicarboxamide]
100 to 300 | > 300 | 100 to 300 | > 300 | COc1ccc(COc2cc3nccc(Oc4ncc(NC(=O)C5(C(=O)Nc6ccc(F)cc6)CC5)cc4F)c3nc2OC)cc1 [Compound 120, 1-N′-[5-Fluoro-6-[[6-methoxy-7-[(4-methoxyphenyl)methoxy]-1,5-naphthyridin-4-yl]oxy]pyridin-3-yl]-1-N-(4-fluorophenyl)cyclopropane-1,1-dicarboxamide]
≤ 10 | 10 to 100 | 10 to 100 | > 300 | COc1cc2nccc(Oc3nc(F)c(NC(=O)C4(C(=O)Nc5ccc(F)cc5)CC4)cc3F)c2nc1OC [Compound 96, 1-N′-[6-[(6,7-Dimethoxy-1,5-naphthyridin-4-yl)oxy]-2,5-difluoropyridin-3-yl]-1-N-(4-fluorophenyl)cyclopropane-1,1-dicarboxamide]

Source: patent US11673897B2, “Compounds for the treatment of kinase-dependent disorders” (Exelixis, Inc., priority 2018, dated 2023)
